The results in this text go back to patent publication US20070088043A1, “Novel HDAC inhibitors” (ORCHID RESEARCH LABORATORIES LIMITED., priority 2005, published 2007).

Each structure is given as a SMILES string. Bounds are passed on as bounds.

For data set [1], the system named is HCT 116 cells. Kind of data set: Anti-cancer screen (MTT), HCT116. The data set is classed as cell-based. Further details: HCT116 TGI: unit: uM. The settings on record: for GI50: concentration to decrease % growth by 50%; for IC100: read-out: HCT116 TGI; for LC50: concentration to decrease % growth by 150%. The essentials: (§1)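 HCT116, NCIH460 and U251 cells (5000/well, DMEM + 10% FBS) seeded 24 h, then treated 48 h in triplicate at 0.01, 0.1, 1, 10, 100 μM; time-zero plate kept. MTT 3 h, formazan in DMSO read at 570 nm; GI50, TGI, LC50 derived.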

Data set [2] concerns MDAMB231/U251. Put plainly: Anti-cancer screen (MTT), MDAMB231/U251. Particulars: MDAMB231/U251 cells, 48 hours; for GI50: concentration to decrease % growth by 50%; for IC100: read-out: MDAMB231/U251 TGI; for LC50: concentration to decrease % growth by 150%. In kind it is cell-based. Also noted: MDAMB231/U251 TGI: unit: uM. The essentials: as §1
The subject of data set [3] is NCIH460, HCT116, MDAMB231/U251. Put plainly: Anti-cancer screen, mean GI50 over the cell lines. In kind it is cell-based. Particulars: in µM. A digest of the protocol:
as §1

Data set [4] has as its system HDAC (Mouse Liver Extract). Put plainly: Histone Deacetylase (HDAC) Inhibition Assay using Boc-Lys (Ac)-AMC Substrate. In kind it is biochemical. The settings on record: mouse liver enzyme, NA = No Activity; for HDAC Inhibition 1 μM / HDAC Inhibition 10 μM: in % (unit assumed). A digest of the protocol: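 Mouse liver extract was the HDAC source. It was preincubated with inhibitor for 5 min at 30° C, then incubated with Boc-Lys(Ac)-AMC substrate for 30 min at 30° C. Trypsin stop solution was added for a 20–30 min development step, and released AMC was read by fluorescence (ex 360/365, em 440/460 nm) with blank subtraction.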

In data set [5] the test system is NCIH 460 cells. Kind of data set: Anti-cancer screen (MTT), NCIH460. In kind it is cell-based. Further details: NCIH460 TGI: unit: uM. The settings on record: for GI50: concentration to decrease % growth by 50%; for IC100: read-out: NCIH460 TGI; for LC50: concentration to decrease % growth by 150%. A digest of the protocol: as §1
Where [6] appears, read: Homo sapiens, HCT-116, HCT116 cells, 48 hours, MTT.
Setting [7] is: Homo sapiens, HCT-116, HCT116 cells, 48 hours, MTT, concentration to decrease % growth by 100%.
Setting [8] is: concentration to decrease % growth by 100%.
[9] abbreviates: Homo sapiens, NCI-H460, NCIH460 cells, 48 hours, MTT.
Setting [10] is: Homo sapiens, NCI-H460, NCIH460 cells, 48 hours, MTT, concentration to decrease % growth by 100%.

Take `O=C(CCCCCCC(=O)N1CCN(CC(=O)Nc2ccccc2)CC1)NO` [Example 31, 8-{4-[2-(Phenyl-2-ylamino)-2-oxoethyl]piperazin-1-yl}-N-hydroxy-8-oxo octanamide]: the GI50 (usually the concentration at which growth is held to half of that of the control) in data set [1] (setting [6]) was found to be 60 µM; in data set [2] it was 0.6 µM; in data set [5] (setting [9]), 60 µM. The IC100 in data set [1] (setting [7]) was greater than 100 µM; in data set [2] (setting [8]) it was 94 µM; in data set [5] (setting [10]) it was greater than 100 µM. For the same compound, the LC50 in data set [1] (setting [6]), in data set [2] and in data set [5] (setting [9]) was greater than 100 µM in each case. In data set [3], the “Mean GI50” value is 40.20. The “HDAC Inhibition 1 μM” value in data set [4] was found to be 45.20. For the same compound, in data set [4], the “HDAC Inhibition 10 μM” value amounted to 84.96.
Consider `CCOc1ccc2nc(NC(=O)CN3CCN(C(=O)CCCCCCC(=O)NO)CC3)sc2c1` [Example 32, 8-{4-[2-(6-Ethoxy-1,3-benzothiazol-2-ylamino)-2-oxoethyl]piperazin-1-yl}-N-hydroxy-8-oxo octanamide], for which the figures for the CC50 in data set [1] and in data set [5] were 95 µM and greater than 100 µM, respectively. Moreover, the GI50 in data set [1] (HCT116 cells, 48 hours, MTT) was 7 µM; in data set [2] it was 1.5 µM; in data set [5] (NCIH460 cells, 48 hours, MTT), 38 µM. For the same compound, the “HCT116 TGI” value in data set [1] (HCT116 cells, 48 hours, MTT, concentration to decrease % growth by 100%) is listed as 42. The “MDAMB231/U251 TGI” value in data set [2] (setting [8]) is 9.5. Also, the LC50 (commonly the concentration that kills 50% of the test population) in data set [2] was 98 µM. In addition, the “Mean GI50” value in data set [3] is recorded as 15.50. In data set [4], the “HDAC Inhibition 1 μM” value amounted to 60.30. The “HDAC Inhibition 10 μM” value in data set [4] is on record as 98.91. Moreover, the “NCIH460 TGI” value in data set [5] (NCIH460 cells, 48 hours, MTT, concentration to decrease % growth by 100%) worked out at 72.
Take `Cc1csc(NC(=O)CN2CCN(C(=O)CCCCCCC(=O)NO)CC2)n1` [Example 33, 8-{4-[2-(4-Methyl-1,3-thiazol-2-ylamino)-2-oxoethyl]piperazin-1-yl}-N-hydroxy-8-oxo octanamide]: the GI50 was found to be 55 µM in data set [1] (setting [6]), 10 µM in data set [2] and 90 µM in data set [5] (setting [9]). The IC100 is greater than 100 µM in data set [1] (setting [7]), 98 µM in data set [2] (setting [8]) and greater than 100 µM in data set [5] (setting [10]). The LC50 in data set [1] (setting [6]), in data set [2] and in data set [5] (setting [9]) was greater than 100 µM each time. Besides, the “Mean GI50” value in data set [3] was determined as 51.67. Further, in data set [4], the “HDAC Inhibition 1 μM” value is 50.09. For the same compound, the “HDAC Inhibition 10 μM” value in data set [4] is reported as 92.38.
For `O=C(CCCCCCC(=O)N1CCN(CC(=O)Nc2nccs2)CC1)NO` [Example 34, 8-{4-[2-(1,3-Thiazol-2-ylamino)-2-oxoethyl]piperazin-1-yl}-N-hydroxy-8-oxo octanamide], the GI50 in data set [1] (setting [6]) was 50 µM; in data set [2], 6 µM; in data set [5] (setting [9]) it was greater than 100 µM. Besides, the IC100 is greater than 100 µM in data set [1] (setting [7]), 74 µM in data set [2] (setting [8]) and greater than 100 µM in data set [5] (setting [10]). The LC50 in data set [1] (setting [6]), in data set [2] and in data set [5] (setting [9]) was greater than 100 µM in each case. Besides, the “Mean GI50” value in data set [3] came to 28. Moreover, the “HDAC Inhibition 1 μM” value in data set [4] was found to be 45.65. In data set [4], the “HDAC Inhibition 10 μM” value is on record as 89.86.
Regarding `Cc1ccc2nc(NC(=O)CN3CCN(C(=O)CCCCCCC(=O)NO)CC3)sc2c1` [Example 35, 8-{4-[2-(6-Methyl-1,3-benzothiazol-2-ylamino)-2-oxoethyl]piperazin-1-yl}-N-hydroxy-8-oxo octanamide], the GI50 in data set [1] (setting [6]) turned out to be 8 µM; in data set [2] it was 5 µM; in data set [5] (setting [9]), 56 µM. For the same compound, the figures for the IC100 in data set [1] (setting [7]), in data set [2] (setting [8]) and in data set [5] (setting [10]) were 40 µM, 45 µM and 100 µM, respectively. Besides, the values for the LC50 in data set [1] (setting [6]), in data set [2] and in data set [5] (setting [9]) were 92 µM, greater than 100 µM and greater than 100 µM, respectively. Besides, the “Mean GI50” value in data set [3] worked out at 23. Also, the “HDAC Inhibition 1 μM” value in data set [4] worked out at 68.3. In addition, in data set [4], the “HDAC Inhibition 10 μM” value was 96.93.
For `O=C(CCCCCCC(=O)N1CCN(CC(=O)Nc2cccc(F)c2)CC1)NO` [Example 36, 8-{4-[2-(3-Fluorophenyl-2-ylamino)-2-oxoethyl]piperazin-1-yl}-N-hydroxy-8-oxo octanamide], the GI50 came to 40 µM in data set [1] (setting [6]), 27 µM in data set [2] and 52 µM in data set [5] (setting [9]). Moreover, the IC100 in data set [1] (setting [7]) is 82 µM; in data set [2] (setting [8]), 62 µM; in data set [5] (setting [10]) it was greater than 100 µM. The LC50 in data set [1] (setting [6]), in data set [2] and in data set [5] (setting [9]) was greater than 100 µM in each case. Also, the “Mean GI50” value in data set [3] came out at 39.67. Moreover, in data set [4], the “HDAC Inhibition 1 μM” value is reported as 98.2. Moreover, the “HDAC Inhibition 10 μM” value in data set [4] is on record as 72.99. In addition, in data set [4], the IC50 (as a rule, the concentration needed to halve the response being measured) is 950 nM.
For the compound `CCOc1ccc2nc(NC(=O)CN3CCN(C(=O)CCCCCCC(=O)N(O)C(C)=O)CC3)sc2c1` [Example 37, 8-{4-[2-(6-Ethoxy-1,3-benzothiazol-2-ylamino)-2-oxoethyl]piperazin-1-yl}-N-acetyl-N-hydroxy-8-oxooctanamide], the 50% growth inhibitory concentration (GI50) in data set [1] (setting [6]) is 7 µM; in data set [2], 4 µM; in data set [5] (setting [9]) it was 40 µM. Besides, the IC100 in data set [1] (setting [7]) is 44 µM; in data set [2] (setting [8]), 45 µM; in data set [5] (setting [10]), 74 µM. Moreover, the LC50 in data set [1] (setting [6]) was greater than 100 µM; in data set [2], 95 µM; in data set [5] (setting [9]), greater than 100 µM. Also, the “Mean GI50” value in data set [3] is on record as 17.00. Besides, in data set [4], the “HDAC Inhibition 1 μM” value worked out at 55.57. Also, the “HDAC Inhibition 10 μM” value in data set [4] turned out to be 94.70.
As to `CC(=O)ON(C(C)=O)C(=O)CCCCCCC(=O)N1CCN(CC(=O)Nc2nc3ccc(C)cc3s2)CC1` [Example 38], the GI50 in data set [1] (setting [6]) stood at 25 µM; in data set [2], 0.4 µM; in data set [5] (setting [9]) it was 40 µM. Further, the IC100 in data set [1] (setting [7]) was 88 µM; in data set [2] (setting [8]), 30 µM; in data set [5] (setting [10]), greater than 100 µM. Besides, the LC50 in data set [1] (setting [6]), in data set [2] and in data set [5] (setting [9]) was greater than 100 µM in each case. Also, the “Mean GI50” value in data set [3] is listed as greater than 100. Besides, the “HDAC Inhibition 1 μM” value in data set [4] worked out at 37.83. In data set [4], the “HDAC Inhibition 10 μM” value was 84.23.
Consider `CC(=O)N(O)C(=O)CCCCCCC(=O)N1CCN(CC(=O)Nc2nc3ccccc3s2)CC1` [Example 39, 8-{4-[2-(1,3-Benzothiazol-2-ylamino)-2-oxoethyl]piperazin-1-yl}-N-acetyl-N-hydroxy-8-oxo octanamide], for which the GI50 in data set [1] (setting [6]) came to 8 µM; in data set [2], 22 µM; in data set [5] (setting [9]) it was 44 µM. The IC100 in data set [1] (setting [7]) came out at 57 µM; in data set [2] (setting [8]) it was 52 µM; in data set [5] (setting [10]), 48 µM. For the same compound, the LC50 in data set [1] (setting [6]) is 98 µM; in data set [2] it was 78 µM; in data set [5] (setting [9]), greater than 100 µM. The “Mean GI50” value in data set [3] is listed as 24.7. In addition, the “HDAC Inhibition 1 μM” value in data set [4] stood at 81.4. Moreover, the “HDAC Inhibition 10 μM” value in data set [4] was found to be 96.6. The compound further had an IC50 in data set [4] of 550 nM.
`Cc1cccc2sc(NC(=O)CN3CCN(C(=O)CCCCCCC(=O)NOCc4ccccc4)CC3)nc12` [Example 40, 8-{4-[2-(4-Methyl-1,3-benzothiazol-2-ylamino)-2-oxoethyl]piperazin-1-yl}-N-hydroxybenzyl-8-oxo octanamide]: the GI50 came out at 4.5 µM in data set [1] (setting [6]), 0.1 µM in data set [2] and 24 µM in data set [5] (setting [9]). The values for the IC100 in data set [1] (setting [7]), in data set [2] (setting [8]) and in data set [5] (setting [10]) were 32 µM, 0.5 µM and 85 µM, respectively. Further, the LC50 in data set [1] (setting [6]), in data set [2] and in data set [5] (setting [9]) was greater than 100 µM each time. Further, in data set [3], the “Mean GI50” value was 9.5. Besides, the “HDAC Inhibition 10 μM” value in data set [4] is on record as 4.1.
For the compound `CC(=O)N(OCc1ccccc1)C(=O)CCCCCCC(=O)N1CCN(CC(=O)Nc2nc3c(C)cccc3s2)CC1` [Example 41], the GI50 was determined as 4.5 µM in data set [1] (setting [6]), 0.1 µM in data set [2] and 26 µM in data set [5] (setting [9]). Also, the IC100 in data set [1] (setting [7]) is 53 µM; in data set [2] (setting [8]), 6.2 µM; in data set [5] (setting [10]), 100 µM. In addition, the LC50 in data set [1] (setting [6]), in data set [2] and in data set [5] (setting [9]) was greater than 100 µM each time. Also, in data set [3], the “Mean GI50” value amounted to 10.2. Further, in data set [4], the “HDAC Inhibition 1 μM” value is recorded as 0.6.
